Measured values published in the supplement of paper PMC10307832.

What was measured:
Test in all cases: relative viability (nuclei count vs DMSO), 5 days (fraction); higher = more cells survive
Bexarotene = compound: C=C(c1ccc(C(=O)O)cc1)c1cc2c(cc1C)C(C)(C)CCC2(C)C [Bexarotene]
Summary of the method: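 Cells of lung cancer lines were placed in 1536-well plates and kept overnight at 37 °C. Pinning then delivered five library-drug doses (not always all listed), spaced by √10, onto plates anchored with vehicle, and the cells were left 5 days without changing medium. One step fixed, permeabilised and stained them with Hoechst, and MetaXpress counted nuclei in 4× images. Viability, as a median over plates, is treated-well nuclei divided by vehicle-well nuclei, with acceptance only at control CV below 25% and at least one doubling.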

Bexarotene + Foretinib = compound: C=C(c1ccc(C(=O)O)cc1)c1cc2c(cc1C)C(C)(C)CCC2(C)C [Bexarotene] + COc1cc2c(Oc3ccc(NC(=O)C4(C(=O)Nc5ccc(F)cc5)CC4)cc3F)ccnc2cc1OCCCN1CCOCC1 [Foretinib] (partner 0.25 µM)
Summary of the method: (§1)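 Five library-drug doses in √10 steps were combined with a fixed anchor-drug dose, or a single drug was given alone, by pin tool to lung cancer cell lines in 1536-well plates the day after seeding. Nuclei were stained and counted after 5 days. Relative viability is the nuclei count in treated wells over that in vehicle wells, taken as the median of duplicate plates.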

Bexarotene + Palbociclib = compound: C=C(c1ccc(C(=O)O)cc1)c1cc2c(cc1C)C(C)(C)CCC2(C)C [Bexarotene] + CC(=O)c1c(C)c2cnc(Nc3ccc(N4CCNCC4)cn3)nc2n(C2CCCC2)c1=O [Palbociclib] (partner 0.5 µM)
Summary of the method: as §1

Bexarotene + OSI-027 = compound: C=C(c1ccc(C(=O)O)cc1)c1cc2c(cc1C)C(C)(C)CCC2(C)C [Bexarotene] + COc1cccc2cc(-c3nc([C@H]4CC[C@H](C(=O)O)CC4)n4ncnc(N)c34)[nH]c12 [OSI-027] (partner 0.5 µM)
Summary of the method: as §1

Cell Line | relative viability (Bexarotene; 0.08 µM) | relative viability (Bexarotene; 0.253 µM) | relative viability (Bexarotene; 0.8 µM) | relative viability (Bexarotene; 2.53 µM) | relative viability (Bexarotene; 8 µM) | relative viability (Bexarotene + Foretinib; first compound 0.08 µM) | relative viability (Bexarotene + Foretinib; first compound 0.253 µM) | relative viability (Bexarotene + Foretinib; first compound 0.8 µM) | relative viability (Bexarotene + Foretinib; first compound 2.53 µM) | relative viability (Bexarotene + Foretinib; first compound 8 µM) | relative viability (Bexarotene + Palbociclib; first compound 0.08 µM) | relative viability (Bexarotene + Palbociclib; first compound 0.253 µM) | relative viability (Bexarotene + Palbociclib; first compound 0.8 µM) | relative viability (Bexarotene + Palbociclib; first compound 2.53 µM) | relative viability (Bexarotene + Palbociclib; first compound 8 µM) | relative viability (Bexarotene + OSI-027; first compound 0.08 µM) | relative viability (Bexarotene + OSI-027; first compound 0.253 µM) | relative viability (Bexarotene + OSI-027; first compound 0.8 µM) | relative viability (Bexarotene + OSI-027; first compound 2.53 µM) | relative viability (Bexarotene + OSI-027; first compound 8 µM)
RERF-LC-KJ | 0.96 | 0.969 | 0.909 | 0.87 | 0.847 | 0.839 | 0.823 | 0.715 | 0.795 | 0.777 | 1.07 | 1.02 | 0.817 | 0.999 | 0.922 | 0.522 | 0.572 | 0.539 | 0.562 | 0.506
SK-LU-1 | 1.2 | 1.13 | – | 1.04 | 0.936 | 0.785 | 0.898 | – | 0.791 | 0.762 | 0.419 | 0.394 | 0.326 | 0.393 | 0.37 | 0.41 | 0.395 | – | 0.352 | 0.351
SK-MES-1 | 1.16 | 1.12 | 1 | 0.98 | 0.909 | 1.1 | 0.959 | 1.02 | 1.03 | 0.866 | 0.347 | 0.352 | 0.314 | 0.313 | 0.267 | 0.638 | 0.708 | 0.563 | 0.603 | 0.525
SW 900 | 0.874 | 0.948 | 0.726 | 0.684 | 0.888 | 0.991 | 0.881 | 0.901 | 1 | 0.862 | 0.553 | 0.41 | 0.52 | 0.423 | 0.411 | 0.673 | 0.739 | 0.739 | 0.55 | 0.451
SW 1573 | 1.04 | 0.976 | 0.921 | 0.84 | 0.771 | 1.02 | 0.831 | 0.661 | 0.669 | 0.666 | 0.362 | 0.327 | 0.378 | 0.354 | 0.288 | 0.696 | 0.58 | 0.564 | 0.469 | 0.471
UMC-11 | 0.976 | 0.952 | 0.917 | 0.917 | 0.963 | 1.1 | 1.01 | 0.946 | 1.07 | 0.956 | 0.308 | 0.355 | 0.316 | 0.267 | 0.339 | 0.468 | 0.515 | 0.419 | 0.436 | 0.432
